Reference: article PMC12211128, “Safety, tolerability, pharmacokinetic and pharmacodynamic effects of the muscarinic M1 positive allosteric modulator VU0467319 for Alzheimer’s disease: a single ascending-dose study in healthy participants” (Alzheimer's Research & Therapy, 2025)
Marks after values point to notes of the source that are not given here.

System: healthy participants
Test: 12-lead ECG / QTcF and concentration/QT analysis
Assay type: in vivo, human
Conditions: for QTcF: mean (SD)
Method: Safety and tolerability were assessed throughout the study via treatment emergent adverse event (TEAE) monitoring, vital signs (blood pressure, pulse rate, respiration rate, oral temperature), physical examinations, 12-lead ECGs, and clinical laboratory parameters including complete blood count (CBC), coagulation, hematology, clinical chemistry assessments, and urinalysis. Safety laboratory tests were drawn at pre-dose and at 5, 24, 36 and 144-hours post-dose for 60–400 mg Cohorts; and at 24, 48, 72 and 144-hours post-dose for the 600 mg and Food Effect Cohort. ECG assessments were conducted at pre-dose and at 1, 2, 3, 5, 9, 24, 36 and 144-hours post-dose for 60–400 mg Cohorts; and at 2, 3, 5, 9, 24, 36, 72 and 144-hours post-dose for the 600 mg and Food Effect Cohort. All adverse events (AEs) were assessed by the investigator for severity and relationship to study medication or study procedures.
All AEs were coded using the Medical Dictionary for Regulatory Activities (MedDRA) version 22.0. All AEs were listed, and the emergence of TEAEs were categorized by body system affected and analyzed to determine whether they were related to treatment. Analysis of TEAEs for VU319 vs. Placebo were completed using Fisher’s Exact Test. Assessment of the grade of toxicity or relation to the study drug for each adverse event was determined by the Investigator. Changes in vital signs, physical examination, and laboratory tests were collected. Changes in vital signs from pre-dose to 48 h post-dose were placed into 10-time bins and assessed using mixed-measures ANOVA with the time bins as the within-subjects factor and dose as the between-subjects factor. To assess changes is QT analyses with respect to VU319 concentration, we calculated the maximal change in QTcF from baseline for each participant. We assessed the relationship between these maximal changes from baseline with the participant’s Cmax using Pearson correlations. Outlier QTcF values (> 450 ms) were also assessed against PK concentrations to examine it there was any relationship using Pearson correlations. Analyses of safety data was completed by SAS version 9.4.

## Cn1cc2c(-c3cc(F)c(CN4Cc5ncccc5C4=O)c(F)c3)cccc2n1 [VU319]
Food effect study, 120 mg Fasted, +2 hour
  QTcF: 405.0 (22.7)
Food effect study, 120 mg Fasted, +3 hour
  QTcF: 405.9 (19.13)
Food effect study, 120 mg Fasted, +5 hour
  QTcF: 406.4 (18.05)
Food effect study, 120 mg Fasted, +9 hour
  QTcF: 405.5 (14.4)
Food effect study, 120 mg Fasted, +24 hour
  QTcF: 401.2 (19.21)
Food effect study, 120 mg Fasted, +36 hour
  QTcF: 405.2 (23.74)
Food effect study, 120 mg Fasted, +72 hour
  QTcF: 403.2 (16.39)
Food effect study, 120 mg Fasted, +144 hour
  QTcF: 405.1 (19.72)
Food effect study, 120 mg Fasted, Baseline
  QTcF: 408.9 (20.1)
Food effect study, 120 mg Fed, +2 hour
  QTcF: 399.2 (19.09)
Food effect study, 120 mg Fed, +3 hour
  QTcF: 402.3 (24.08)
Food effect study, 120 mg Fed, +5 hour
  QTcF: 405.0 (16.01)
Food effect study, 120 mg Fed, +9 hour
  QTcF: 402.5 (19.51)
Food effect study, 120 mg Fed, +24 hour
  QTcF: 403.0 (16.89)
Food effect study, 120 mg Fed, +36 hour
  QTcF: 399.5 (21.91)
Food effect study, 120 mg Fed, +72 hour, n = 9, in ms
  QTcF: 402.7 (17.38)^#
Food effect study, 120 mg Fed, +144 hour
  QTcF: 403.6 (24.86)
Food effect study, 120 mg Fed, Baseline
  QTcF: 406.7 (21.7)
SAD study
  QT intervals, effect of dose: no significant dose-by-time interactions or main effects of dose group
SAD study, 60 mg, +1 hour
  QTcF: 411.0 (11.82)
SAD study, 60 mg, +2 hour
  QTcF: 414.8 (18.13)
SAD study, 60 mg, +3 hour
  QTcF: 412.8 (23.01)
SAD study, 60 mg, +5 hour
  QTcF: 417.2 (19.47)
SAD study, 60 mg, +9 hour
  QTcF: 411.3 (21.31)
SAD study, 60 mg, +24 hour
  QTcF: 408.7 (8.52)
SAD study, 60 mg, +36 hour, n = 5
  QTcF: 410.6 (10.5)*
SAD study, 60 mg, +144 hour
  QTcF: 415.5 (7.66)
SAD study, 60 mg, Baseline
  QTcF: 418.0 (17.1)
SAD study, 120 mg, +1 hour
  QTcF: 409.7 (15.34)
SAD study, 120 mg, +2 hour
  QTcF: 407.0 (21.02)
SAD study, 120 mg, +3 hour
  QTcF: 412.7 (20.02)
SAD study, 120 mg, +5 hour
  QTcF: 406.8 (15.5)
SAD study, 120 mg, +9 hour
  QTcF: 409.2 (16.68)
SAD study, 120 mg, +24 hour
  QTcF: 408.3 (12.64)
SAD study, 120 mg, +36 hour
  QTcF: 408.0 (18.17)
SAD study, 120 mg, +144 hour
  QTcF: 406.7 (17.95)
SAD study, 120 mg, Baseline
  QTcF: 406.0 (12.23)
SAD study, 240 mg, +1 hour
  QTcF: 422.7 (22.05)
SAD study, 240 mg, +2 hour
  QTcF: 415.5 (28.46)
SAD study, 240 mg, +3 hour
  QTcF: 421.7 (19.48)
SAD study, 240 mg, +5 hour
  QTcF: 414.8 (24.28)
SAD study, 240 mg, +9 hour
  QTcF: 421.0 (15.03)
SAD study, 240 mg, +24 hour
  QTcF: 415.2 (16.22)
SAD study, 240 mg, +36 hour
  QTcF: 418.2 (24.29)
SAD study, 240 mg, +144 hour
  QTcF: 422.8 (12.32)
SAD study, 240 mg, Baseline
  QTcF: 426.0 (33.22)
SAD study, 400 mg, +1 hour
  QTcF: 405.3 (24.45)
SAD study, 400 mg, +2 hour
  QTcF: 405.0 (26.62)
SAD study, 400 mg, +3 hour
  QTcF: 405.3 (25.65)
SAD study, 400 mg, +5 hour
  QTcF: 405.2 (27.72)
SAD study, 400 mg, +9 hour
  QTcF: 400.7 (23.41)
SAD study, 400 mg, +24 hour
  QTcF: 400.7 (17.13)
SAD study, 400 mg, +36 hour
  QTcF: 404.5 (20.16)
SAD study, 400 mg, +144 hour
  QTcF: 410.5 (10.21)
SAD study, 400 mg, Baseline
  QTcF: 401.8 (24.13)
SAD study, 600 mg, +2 hour
  QTcF: 419.7 (27.65)
SAD study, 600 mg, +3 hour
  QTcF: 419.5 (31.48)
SAD study, 600 mg, +5 hour
  QTcF: 413.8 (23.37)
SAD study, 600 mg, +9 hour
  QTcF: 413.8 (26.54)
SAD study, 600 mg, +24 hour
  QTcF: 408.0 (17.38)
SAD study, 600 mg, +36 hour
  QTcF: 418.2 (24.79)
SAD study, 600 mg, +72 hour
  QTcF: 413.3 (19.22)
SAD study, 600 mg, +144 hour
  QTcF: 415.7 (23.99)
SAD study, 600 mg, Baseline
  QTcF: 416.0 (25.35)
SAD study, p > 0.6
  relationship between change in QTcF from baseline and Cmax: did not show a significant relationship
Food effect study, Fasted p > 0.4, Fed p > 0.5
  relationship between change in QTcF from baseline and Cmax: did not show a significant relationship
